Results reported in patent US20040029196A1, “Epithelial cell lines from gene knockout mice and methods of use thereof” (priority 2001, published 2004).
Marks after values point to notes of the source that are not given here.

Tests used:
Apc [+/−] 1638NCOL cells [1] = assay: Dose response in conventional cell survival assay (growth arrest, toxicity); type: cell-based, mouse; set-up: key to Toxicity: +: Toxicity, surviving cell population lower than initial seeding density; conditions: for No effect: 0.01 μM
Procedure: (§1) Differential susceptibility of C57COL (wild type Ape [+/+]), the control cell line, and 1638NCOL (Apc [+/−]) to growth inhibition by mechanistically distinct prototype chemopreventive test compounds was evaluated in a conventional cell survival assay, while the preventive efficacy of the test compounds was evaluated using optimized quantitative flow cytometry-based cell cycle analysis. Optimization of flow cytometry based cell cycle analysis is published (7, 8, 10, 11) and is needed in view of batch-to-batch variations in commercially available fluorescein isothiocyanate-conjugated antibodies.
The dose response and efficacy studies involved treatment of cell cultures with five log μM concentrations of each compound (0.01, 0.1, 1.0, 10.0 and 100.0 μM).

Apc [+/−] 1638NCOL cells [2] = assay: Flow cytometry-based aneuploid cell cycle progression analysis; set-up: species or system mouse; conditions: for G0/G1:S + G2/M ratio (aneuploid cell cycle progression): mean ± SD, n = 3
Procedure: Aneuploidy: Fluorescence assisted cell sorting and flow cytometry of cells stained with DNA binding fluorescent dyes. Diploid and aneuploid cells accumulate as distinct peaks on the DNA histograms obtained from flow cytometric analysis.
as §1
(§2) The cell lines were characterized for expression of epithelium specific proteins (cytokeratins), Apc gene product (full length, as opposed to truncated forms which are differentially reactive to carboxyl and amino terminal Apc antibodies), and cytodifferentiation (MUC1, acid mucopolysaccharide, alkaline phosphatase) using standard assays for immunocytochemical analysis. The growth kinetics were determined based on the time-dependent increase in the number of viable cells relative to the initial seeding density. The cell cycle progression and anchorage-independent growth were determined using fluorescence assisted flow cytometry and colony forming assays, respectively, as previously described (4, 7-11). The expression profile of specific gene products (proteins) involved in the regulation of cell cycle progression, apoptosis, and differentiation was also quantified using recently optimized cellular epifluorescence assays (10, 11).

Apc [+/−] 1638NCOL cells [3] = assay: Cytostatic growth arrest (cell population doubling); type: cell-based, mouse; conditions: for No. of population doublings: mean ± SD, n = 3
Procedure: as §1
(§3) Selective susceptibility of Ape [+/−] 1638NCOL cells to a prototype chemopreventive agent sulindac (SUL) was examined by comparing its effect on Ape [+/+] C57COL and Ape [+/−] 1638NCOL cells. The cytostatic growth arrest response, evidenced by a decrease in cell population doubling, was about 2-3 fold higher in Ape [+/−] cells as compared to that of Ape [+/+] cells (Table 3).
The dose response and efficacy studies involved treatment of cell cultures with five log μM concentrations of each compound (0.01, 0.1, 1.0, 10.0 and 100.0 μM). […] The cytostatic effect of treatment with high doses (100 μM) was associated with down regulated cell population doubling, altered aneuploid G0/G1: S+G2/M ratio, and decreased number of anchorage independent colonies (Table 4).
as §2

Apc [+/−] 1638NCOL cells [4] = assay: Anchorage-independent growth (soft agar colony formation); type: cell-based, mouse; conditions: 100 μM
From the text: Anchorage-independent growth: The ‘soft’ agar growth assay monitors the ability of cells to form non adherant colonies. Single cells suspended in 0.33% agar are overlaid on a basement matrix. These cultures are maintained for about 10-14 days and resulting colonies are counted.
as §2

C57COL (Apc [+/+]) cells = assay: Cytostatic growth arrest (cell population doubling), control cell line; type: cell-based, mouse
Procedure: as §1, §3, §2

NCCCNCCSP(=O)(O)O [AMF, Amifostine]
No effect (Apc [+/−] 1638NCOL cells [1]): + (No effect <20% inhibition of surviving cell population) | Growth arrest (%) (Apc [+/−] 1638NCOL cells [1]; 1 μM (Table 8)): 25% | Growth arrest (%) (Apc [+/−] 1638NCOL cells [1]; 10 μM (Table 8)): 40% | Toxicity (Apc [+/−] 1638NCOL cells [1]; 100 μM): + | Growth arrest (%) (Apc [+/−] 1638NCOL cells [1]; 0.1-10 μM): 25-40% | G0/G1:S + G2/M ratio (aneuploid cell cycle progression) (Apc [+/−] 1638NCOL cells [2]; 1 μM): 9.6 ± 0.7 | Cell cycle phase (Apc [+/−] 1638NCOL cells [2]; 10 μM): G1 arrest | G0/G1:S + G2/M ratio (aneuploid cell cycle progression) (Apc [+/−] 1638NCOL cells [2]; 10 μM): 10.9 ± 0.6^c | % Change in no. of population doublings versus EtOH control (Apc [+/−] 1638NCOL cells [3]; 1 μM): −17.2% | No. of population doublings (Apc [+/−] 1638NCOL cells [3]; 1 μM): 8.2 ± 0.2 | % Change in no. of population doublings versus EtOH control (Apc [+/−] 1638NCOL cells [3]; 10 μM): −37.4% | No. of population doublings (Apc [+/−] 1638NCOL cells [3]; 10 μM): 6.2 ± 0.3

CC1=C(/C=C/C(C)=C\C=C\C(C)=C\C(=O)O)C(C)(C)CCC1 [Agent 9cisRA, 9cis retinoic acid]
No effect (Apc [+/−] 1638NCOL cells [1]): + (No effect <20% inhibition of surviving cell population) | Growth arrest (%) (Apc [+/−] 1638NCOL cells [1]; 1 μM (Table 8)): 30% | Growth arrest (%) (Apc [+/−] 1638NCOL cells [1]; 100 μM): 60% | Growth arrest (%) (Apc [+/−] 1638NCOL cells [1]; 100 μM (Table 8)): 60% | Growth arrest (%) (Apc [+/−] 1638NCOL cells [1]; 0.1-10 μM): 30% | Anchorage-independent colonies (Apc [+/−] 1638NCOL cells [4]): 4.4 ± 1.2 | Cell cycle phase (Apc [+/−] 1638NCOL cells [2]; 1 μM): G1 arrest | G0/G1:S + G2/M ratio (aneuploid cell cycle progression) (Apc [+/−] 1638NCOL cells [2]; 1 μM): 13.8 ± 0.5^c | Aneuploid G0/G1:S + G2/M ratio (Apc [+/−] 1638NCOL cells [2]; 100 μM): 18.5 ± 0.2 | Cell cycle phase (Apc [+/−] 1638NCOL cells [2]; 100 μM): G1 arrest | G0/G1:S + G2/M ratio (aneuploid cell cycle progression) (Apc [+/−] 1638NCOL cells [2]; 100 μM): 22.1 ± 0.6^c | % Change in no. of population doublings versus EtOH control (Apc [+/−] 1638NCOL cells [3]; 1 μM): −32.3% | No. of population doublings (Apc [+/−] 1638NCOL cells [3]; 1 μM): 6.7 ± 0.2 | % Change in no. of population doublings versus EtOH control (Apc [+/−] 1638NCOL cells [3]; 100 μM): −53.5% | Cell Population Doubling (Apc [+/−] 1638NCOL cells [3]; 100 μM): 4.6 ± 0.1 | No. of population doublings (Apc [+/−] 1638NCOL cells [3]; 100 μM): 4.6 ± 0.1^c

Cc1c(-c2cnccn2)ssc1=S [OLT, Oltipraz]
No effect (Apc [+/−] 1638NCOL cells [1]): + (No effect <20% inhibition of surviving cell population) | Growth arrest (%) (Apc [+/−] 1638NCOL cells [1]; 1 μM (Table 8)): 2% | Growth arrest (%) (Apc [+/−] 1638NCOL cells [1]; 100 μM): 25% | Growth arrest (%) (Apc [+/−] 1638NCOL cells [1]; 100 μM (Table 8)): 25% | Growth arrest (%) (Apc [+/−] 1638NCOL cells [1]; 0.1-10 μM): 2% | Anchorage-independent colonies (Apc [+/−] 1638NCOL cells [4]): 15.8 ± 1.8 | Cell cycle phase (Apc [+/−] 1638NCOL cells [2]; 1 μM): S,G2M arrest | G0/G1:S + G2/M ratio (aneuploid cell cycle progression) (Apc [+/−] 1638NCOL cells [2]; 1 μM): 1.0 ± 0.2^d | Aneuploid G0/G1:S + G2/M ratio (Apc [+/−] 1638NCOL cells [2]; 100 μM): 7.2 ± 0.1 | Cell cycle phase (Apc [+/−] 1638NCOL cells [2]; 100 μM): S,G2M arrest | G0/G1:S + G2/M ratio (aneuploid cell cycle progression) (Apc [+/−] 1638NCOL cells [2]; 100 μM): 1.2 ± 0.1^d | % Change in no. of population doublings versus EtOH control (Apc [+/−] 1638NCOL cells [3]; 1 μM): +8.1% | No. of population doublings (Apc [+/−] 1638NCOL cells [3]; 1 μM): 10.7 ± 0.2 | % Change in no. of population doublings versus EtOH control (Apc [+/−] 1638NCOL cells [3]; 100 μM): −15.1% | Cell Population Doubling (Apc [+/−] 1638NCOL cells [3]; 100 μM): 8.4 ± 0.4 | No. of population doublings (Apc [+/−] 1638NCOL cells [3]; 100 μM): 8.4 ± 0.4

CC1=C(CC(=O)O)c2cc(F)ccc2/C1=C\c1ccc([S+](C)[O-])cc1 (stereo not shown) [SUL, Sulindac]
No effect (Apc [+/−] 1638NCOL cells [1]): + (No effect <20% inhibition of surviving cell population) | Growth arrest (%) (Apc [+/−] 1638NCOL cells [1]; 1 μM (Table 8)): 30% | Growth arrest (%) (Apc [+/−] 1638NCOL cells [1]; 100 μM): 70% | Growth arrest (%) (Apc [+/−] 1638NCOL cells [1]; 100 μM (Table 8)): 70% | Growth arrest (%) (Apc [+/−] 1638NCOL cells [1]; 0.1-10 μM): 30% | inhibition at 1 µM (C57COL (Apc [+/+]) cells; Mus musculus, 120 h, SUL 1 μM, day 5): 10.2% | inhibition at 10 µM (C57COL (Apc [+/+]) cells; Mus musculus, 120 h, SUL 10 μM, day 5): 15.4% | inhibition at 100 µM (C57COL (Apc [+/+]) cells; Mus musculus, 120 h, SUL 100 μM, day 5): 71.8% | Cell Population Doubling at Day 5 Post-Seeding (C57COL (Apc [+/+]) cells; SUL 1 μM): 3.5 ± 0.4 | Cell Population Doubling at Day 5 Post-Seeding (C57COL (Apc [+/+]) cells; SUL 10 μM): 3.3 ± 0.7 | Cell Population Doubling at Day 5 Post-Seeding (C57COL (Apc [+/+]) cells; SUL 100 μM): 1.1 ± 0.5 | Anchorage-independent colonies (Apc [+/−] 1638NCOL cells [4]): 0.5 ± 0.3 | G0/G1:S + G2/M ratio (aneuploid cell cycle progression) (Apc [+/−] 1638NCOL cells [2]; 1 μM): 6.6 ± 0.4^d | Aneuploid G0/G1:S + G2/M ratio (Apc [+/−] 1638NCOL cells [2]; 100 μM): 13.9 ± 0.5 | Cell cycle phase (Apc [+/−] 1638NCOL cells [2]; 100 μM): G1arrest | G0/G1:S + G2/M ratio (aneuploid cell cycle progression) (Apc [+/−] 1638NCOL cells [2]; 100 μM): 13.9 ± 0.8^c | % Change in no. of population doublings versus EtOH control (Apc [+/−] 1638NCOL cells [3]; 1 μM): −23.2% | No. of population doublings (Apc [+/−] 1638NCOL cells [3]; 1 μM): 7.6 ± 0.3 | % Change in no. of population doublings versus EtOH control (Apc [+/−] 1638NCOL cells [3]; 100 μM): −61.6% | Cell Population Doubling (Apc [+/−] 1638NCOL cells [3]; 100 μM): 3.8 ± 0.2 | No. of population doublings (Apc [+/−] 1638NCOL cells [3]; 100 μM): 3.8 ± 0.2^c | Cell Population Doubling at Day 5 Post-Seeding (Apc [+/−] 1638NCOL cells [3]; 1638NCOL (Apc [+/−]), SUL 1 μM): 4.8 ± 0.6 | Cell Population Doubling at Day 5 Post-Seeding (Apc [+/−] 1638NCOL cells [3]; 1638NCOL (Apc [+/−]), SUL 10 μM): 4.4 ± 0.4 | Cell Population Doubling at Day 5 Post-Seeding (Apc [+/−] 1638NCOL cells [3]; 1638NCOL (Apc [+/−]), SUL 100 μM): 2.3 ± 0.3 | Cytostatic growth arrest response (decrease in cell population doubling) in Apc [+/−] cells as compared to Apc [+/+] cells (Apc [+/−] 1638NCOL cells [3]; 1638NCOL versus C57COL): 2-3 fold | inhibition at 1 µM (Apc [+/−] 1638NCOL cells [3]; Mus musculus, 120 h, 1638NCOL (Apc [+/−]), SUL 1 μM, day 5): 34.2% | inhibition at 10 µM (Apc [+/−] 1638NCOL cells [3]; Mus musculus, 120 h, 1638NCOL (Apc [+/−]), SUL 10 μM, day 5): 39.7% | inhibition at 100 µM (Apc [+/−] 1638NCOL cells [3]; Mus musculus, 120 h, 1638NCOL (Apc [+/−]), SUL 100 μM, day 5): 68.5%

CC/C(=C(\c1ccccc1)c1ccc(OCCN(C)C)cc1)c1ccccc1 [TAM, Tamoxifen]
No effect (Apc [+/−] 1638NCOL cells [1]): + (No effect <20% inhibition of surviving cell population) | Growth arrest (%) (Apc [+/−] 1638NCOL cells [1]; 1 μM (Table 8)): 20% | Growth arrest (%) (Apc [+/−] 1638NCOL cells [1]; 10 μM (Table 8)): 30% | Toxicity (Apc [+/−] 1638NCOL cells [1]; 100 μM): + | Growth arrest (%) (Apc [+/−] 1638NCOL cells [1]; 0.1-10 μM): 20-30% | Cell cycle phase (Apc [+/−] 1638NCOL cells [2]; 1 μM): S,G2M arrest | G0/G1:S + G2/M ratio (aneuploid cell cycle progression) (Apc [+/−] 1638NCOL cells [2]; 1 μM): 2.7 ± 0.9^d | Cell cycle phase (Apc [+/−] 1638NCOL cells [2]; 10 μM): S,G2M arrest | G0/G1:S + G2/M ratio (aneuploid cell cycle progression) (Apc [+/−] 1638NCOL cells [2]; 10 μM): 1.8 ± 0.8^d | % Change in no. of population doublings versus EtOH control (Apc [+/−] 1638NCOL cells [3]; 1 μM): −23.2% | No. of population doublings (Apc [+/−] 1638NCOL cells [3]; 1 μM): 7.6 ± 0.4 | % Change in no. of population doublings versus EtOH control (Apc [+/−] 1638NCOL cells [3]; 10 μM): −28.3% | No. of population doublings (Apc [+/−] 1638NCOL cells [3]; 10 μM): 7.1 ± 0.2
